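Results reflect a 48-hour exposure of cells in 96-well plates to compound at five concentrations. GI50: concentration for 50% inhibition of growth.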 The source made the active and inactive calls. Rule as the data show it: active = GI50 up to about 1.1 µM and inactive = higher.
Key:
Test in all cases: DTP human tumour cell line panel, 48 h
MDA-MB-435 = test system: MDA-MB-435
MDA-MB-231 = test system: MDA-MB-231
A498 = test system: A498
NCI-H226 = test system: NCI-H226
U-251 = test system: U-251
EKVX = test system: EKVX
UO-31 = test system: UO-31
TK-10 = test system: TK-10
K562 = test system: K562
RXF 393 = test system: RXF 393
T47D = test system: T47D
SK-MEL-5 = test system: SK-MEL-5
HCT-15 = test system: HCT-15
Malme-3M = test system: Malme-3M
HCT-116 = test system: HCT-116
NCI-H23 = test system: NCI-H23
OVCAR-5 = test system: OVCAR-5
COLO 205 = test system: COLO 205
SNB-19 = test system: SNB-19
SNB-75 = test system: SNB-75
CAKI-1 = test system: CAKI-1
SF-295 = test system: SF-295
SF-268 = test system: SF-268
MDA-N = test system: MDA-N
HOP-62 = test system: HOP-62
KM12 = test system: KM12
SK-OV-3 = test system: SK-OV-3
Hs-578T = test system: Hs-578T
RPMI-8226 = test system: RPMI-8226
HT-29 = test system: HT-29
SW-620 = test system: SW-620
PC-3 = test system: PC-3
SF-539 = test system: SF-539
CCRF-CEM = test system: CCRF-CEM
NCI-H522 = test system: NCI-H522
SK-MEL-2 = test system: SK-MEL-2
OVCAR-4 = test system: OVCAR-4
HCC 2998 = test system: HCC 2998
NCI-H460 = test system: NCI-H460
MOLT-4 = test system: MOLT-4
NCI/ADR-RES = test system: NCI/ADR-RES
A549 = test system: A549
IGROV-1 = test system: IGROV-1
HOP-92 = test system: HOP-92
HL-60 = test system: HL-60
UACC-257 = test system: UACC-257
LOX IMVI = test system: LOX IMVI
SK-MEL-28 = test system: SK-MEL-28
SN12C = test system: SN12C
M14 = test system: M14
OVCAR-3 = test system: OVCAR-3
786-0 = test system: 786-0
OVCAR-8 = test system: OVCAR-8
ACHN = test system: ACHN
SR = test system: SR
MCF7 = test system: MCF7
BT-549 = test system: BT-549
DU-145 = test system: DU-145

Cc1cc2nc(-c3c(F)cccc3F)n(Cc3c(F)cccc3F)c2cc1C
GI50 (MDA-MB-435): 14.7 µM (inactive) | GI50 (MDA-MB-231): 14 µM (inactive) | GI50 (A498): 20.1 µM (inactive) | GI50 (NCI-H226): 15.7 µM (inactive) | GI50 (U-251): 11.1 µM (inactive) | GI50 (EKVX): 8.24 µM (inactive) | GI50 (UO-31): 11.1 µM (inactive) | GI50 (TK-10): 29.4 µM (inactive) | GI50 (K562): 11 µM (inactive) | GI50 (RXF 393): 23.2 µM (inactive) | GI50 (T47D): 14.8 µM (inactive) | GI50 (SK-MEL-5): 13.6 µM (inactive) | GI50 (HCT-15): 14.4 µM | GI50 (Malme-3M): 27.9 µM (inactive) | GI50 (HCT-116): 12.1 µM (inactive) | GI50 (NCI-H23): 19.6 µM (inactive) | GI50 (OVCAR-5): 16.6 µM (inactive) | GI50 (COLO 205): 15.2 µM (inactive) | GI50 (SNB-19): 19.5 µM (inactive) | GI50 (SNB-75): 3.37 µM (inactive) | GI50 (CAKI-1): 15.2 µM (inactive) | GI50 (SF-295): 13.4 µM (inactive) | GI50 (SF-268): 18.8 µM (inactive) | GI50 (MDA-N): 16 µM (inactive) | GI50 (HOP-62): 14.4 µM (inactive) | GI50 (KM12): 14.8 µM (inactive) | GI50 (SK-OV-3): 16.9 µM (inactive) | GI50 (Hs-578T): 19.2 µM (inactive) | GI50 (RPMI-8226): 5.28 µM (inactive) | GI50 (HT-29): 15.5 µM (inactive) | GI50 (SW-620): 16.3 µM (inactive) | GI50 (PC-3): 15.7 µM (inactive) | GI50 (SF-539): 18.5 µM (inactive) | GI50 (CCRF-CEM): 22.7 µM (inactive) | GI50 (NCI-H522): 12.7 µM (inactive) | GI50 (SK-MEL-2): 15.8 µM (inactive) | GI50 (OVCAR-4): 15 µM (inactive) | GI50 (HCC 2998): 9.71 µM (inactive) | GI50 (NCI-H460): 13.6 µM (inactive) | GI50 (MOLT-4): 13.1 µM (inactive) | GI50 (NCI/ADR-RES): 18.5 µM (inactive) | GI50 (A549): 12.1 µM (inactive) | GI50 (IGROV-1): 14.3 µM (inactive) | GI50 (HOP-92): 12.7 µM (inactive) | GI50 (HL-60): 16.3 µM (inactive) | GI50 (UACC-257): 16.1 µM (inactive) | GI50 (LOX IMVI): 14.3 µM (inactive) | GI50 (SK-MEL-28): 16.6 µM (inactive) | GI50 (SN12C): 16.4 µM (inactive) | GI50 (M14): 12.2 µM (inactive) | GI50 (OVCAR-3): 16.4 µM (inactive) | GI50 (786-0): 17.9 µM (inactive) | GI50 (OVCAR-8): 13.5 µM (inactive) | GI50 (ACHN): 14.3 µM (inactive) | GI50 (SR): 11.3 µM (inactive) | GI50 (MCF7): 15.2 µM (inactive) | GI50 (BT-549): 13.2 µM (inactive) | GI50 (DU-145): 23.6 µM (inactive)
